Measurements reported in patent US7989445B2, “Thienopyrimidone compound” (Takeda Pharmaceutical Company Limited, priority 2005, dated 2011).
Counter-ions that a name gives are not always drawn.

Experiments:
[1] = target: T1, SLC-1 expression CHO cell membrane fraction (MCH receptor) (Homo sapiens, UniProt Q99705); test: Antagonistic activity of test compound using GTPγS binding assay; type: biochemical, human/rat; settings: [35S]-GTPγS binding stimulated by MCH, 25° C., 1 hr, read-out: inhibitory activity (IC50: nM)
T1 construct: expressed in transfected cells; host or cells: CHO cells (human SLC-1 clone 57 / rat SLC-1 clone 44), membrane fraction
T1 sequence (Q99705 whole entry): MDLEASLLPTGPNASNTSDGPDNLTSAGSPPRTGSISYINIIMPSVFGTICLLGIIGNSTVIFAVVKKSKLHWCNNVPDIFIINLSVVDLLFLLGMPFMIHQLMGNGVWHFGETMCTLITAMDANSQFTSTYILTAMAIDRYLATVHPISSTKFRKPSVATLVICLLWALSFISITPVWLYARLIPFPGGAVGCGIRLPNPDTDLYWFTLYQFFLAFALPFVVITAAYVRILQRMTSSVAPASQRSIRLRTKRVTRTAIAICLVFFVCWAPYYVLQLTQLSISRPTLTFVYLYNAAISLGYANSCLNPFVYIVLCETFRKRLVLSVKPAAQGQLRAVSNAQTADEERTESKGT
Description: Determination of Antagonistic Activity of Test Compound using GTPγS Binding Assay
Using human SLC-1 expression CHO cell clone 57 and rat SLC-1 expression CHO cell clone 44 described in WO01/82925, SLC-1 expression CHO cell membrane fractions were prepared by the following method. In phosphate buffered saline (pH 7.4) supplemented with 5 mM EDTA (ethylenediaminetetraacetic acid) were suspended human and rat SLC-1 expression CHO cells (1×10^8) and centrifuged. Homogenate buffer (10 ml, 10 mM NaHCO3, 5 mM EDTA, pH 7.5) was added to the pellets of the cells and, using Polytron Homogenizer, the mixture was homogenated. The supernatant obtained after centrifugation at 400×g for 15 min was further centrifuged at 100,000×g for 1 hr to give precipitate of the membrane fraction. The precipitate was suspended in 2 ml of an assay buffer [50 mM Tris-HCl (pH 7.5), 1 mM EDTA, 0.1% BSA (bovine serum albumin), 10 mM MgCl2, 100 mM NaCl, 1 μM GDP (guanosine 5′-diphosphate), 0.25 mM PMSF (phenylmethylsulfonyl fluoride), […] pepstatin, […] leupeptin, […] phosphoramidon] and centrifuged at 100,000×g for 1 hr. The membrane fraction recovered as precipitate was suspended again in 20 ml of an assay buffer, and after dispensing, preserved at −80° C. and used upon thawing each time when in use.
The antagonistic activity of the test compound was determined as follows. The SLC-1 expression CHO cell membrane fraction (171 μl) diluted with an assay buffer was dispensed to a polypropylene 96 well plate and 3×10^−10 M MCH (2 μl) diluted with DMSO solution, test compound solution (2 μl) diluted to various concentrations and [^35S]-Guanosine 5′-(γ-thio)triphosphate ([…] Daiichi Pure Chemicals Co., Ltd.) were respectively added (cell membrane final concentration: 20 μg/ml, [^35S]-Guanosine 5′-(γ-thio)triphosphate final concentration: 0.33 nM). The reaction mixture was reacted at 25° C. for 1 hr with stirring, suction filtered with a glass filter (GF-C) and washed 3 times with a wash solution (300 μl, 50 mM Tris-HCl buffer, pH 7.5). Liquid scintillator ([…]) was added to the glass filter and the residual radioactivity was determined by a liquid scintillation counter. Binding inhibition (%)=(radioactivity upon addition of test compound and MCH−radioactivity upon addition of DMSO solution)/(radioactivity upon addition of MCH−radioactivity upon addition of DMSO solution)×100
From the binding inhibition (%), IC50 of the test compound was calculated.

Row | melting point [°C] | IC50 [1] [nM] | Structure (SMILES)
1 | 176 to 178 | 4.8 | CC(=O)N(C)Cc1ccc(CCn2cnc3cc(-c4ccc(Cl)cc4)sc3c2=O)cc1 [Example 6, N-(4-{2-[6-(4-chlorophenyl)-4-oxothieno[3,2-d]pyrimidin-3(4H) -yl]ethyl}benzyl)-N-methylacetamide]
2 |  | 1.2 | O=c1c2sc(-c3ccc(Cl)cc3)cc2ncn1CCc1ccc(CN2CC[C@H](F)C2)cc1 [Example 18, 6-(4-chlorophenyl)-3-[2-(4-{[(3S)-3-fluoropyrrolidin-1-yl]methyl}phenyl)ethyl]thieno[3,2-d]pyrimidin-4(3H)-one]
3 | 207 to 212 | 5 | CN(CC(N)=O)Cc1ccc(CCn2cnc3cc(-c4ccc(Cl)cc4)sc3c2=O)cc1 [Example 32, N^2-(4-{2-[6-(4-chlorophenyl)-4-oxothieno[3,2-d]pyrimidin-3(4H) -yl]ethyl}benzyl)-N^2-methylglycinamide]
4 | 218 to 221 | 3.2 | O=C1CCCN1Cc1ccc(CCn2cnc3cc(-c4ccc(Cl)cc4)sc3c2=O)cc1 [Example 11, 6-(4-chlorophenyl)-3-(2-{4-[(2-oxopyrrolidin-1-yl)methyl]phenyl}ethyl)thieno[3,2-d]pyrimidin-4(3H)-one]
5 |  | 10 | CC(=O)N(C)N(C)c1ccc(CCn2cnc3cc(-c4ccc(Cl)cc4)sc3c2=O)cc1 [Example 22, N′-[4-[2-[6-(4-chlorophenyl)-4-oxothieno[3,2-d]pyrimidin-3(4H)-yl]ethyl]phenyl]-N,N′-dimethylacetohydrazide]
6 |  | 0.4 | CNCc1ccc(CCn2cnc3cc(-c4ccc(Cl)cc4)sc3c2=O)cc1 [Example 4, 6-(4-chlorophenyl)-3-(2-{4-[(methylamino)methyl]phenyl}ethyl)thieno[3,2-d]pyrimidin-4(3H)-one dihydrochloride]
7 | 156 to 158 | 4.7 | CN(C)C(=S)N(C)Cc1ccc(CCn2cnc3cc(-c4ccc(Cl)cc4)sc3c2=O)cc1 [Example 9, N-(4-{2-[6-(4-chlorophenyl)-4-oxothieno[3,2-d]pyrimidin-3(4H) -yl]ethyl}benzyl)-N,N′,N′-trimethylthiourea]
8 | 163 to 166 | 0.3 | O=c1c2sc(-c3ccc(Cl)cc3)cc2ncn1CCc1ccc(CN2CCCC2)cc1 [Example 1, 6-(4-chlorophenyl)-3-{2-[4-(pyrrolidin-1-ylmethyl)phenyl]ethyl}thieno[3,2-d]pyrimidin-4(3H)-one]
9 | 175 to 179 | 0.4 | CC(c1ccc(CCn2cnc3cc(-c4ccc(Cl)cc4)sc3c2=O)cc1)N1CCCCC1 (stereo not drawn) [Example 2, 6-(4-chlorophenyl)-3-{2-[4-(1-piperidin-1-ylethyl)phenyl]ethyl}thieno[3,2-d]pyrimidin-4(3H)-one]
